System: 485368-065-R3-J5-PDC spheroids with HUVEC/MSC, viability
Assay: Anticancer human tumor 485368-065-R3-J5-PDC patient-derived pancreatic carcinoma cell line growth inhibition [RAS]
Conditions: for IC50: curve of first compound; for viability, T/C: stronger effect = lower value
From the text: RAS pathway inhibitors in Combinations in Complex Spheroids
A high-throughput screen of multi-cell type tumor spheroids was designed to identify active combinations of RAS pathway inhibitors and targeted small molecules. Complex spheroids include a stromal component modeled by human endothelial cells (HUVEC) and fibroblasts modeled by human mesenchymal stem cells (MSCs). The concentration ranges selected for each drug and investigational agent were based upon clinically achievable concentrations if the clinical Cmax of the agent was known.
Compounds. The drugs and investigational agents: abemaciclib (NSC768073), cobimetinib (NSC768068), divarasib (GDC6063, NSC841802), docetaxel (NSC628503), GDC-1971 (RLY-1971, NSC841576), gemcitabine (NSC613327), inavolisib (NSC800729), ipatasertib (NSC767898), KB-0742 (NSC834161), MRTX-1133 (NSC836407), osimertinib (NSC779217), RMC-4630 (NSC839698), RMC-6236 (NSC851965), RMC-6291 (NSC852671), Ro-3306 (NSC812927), sapanisertib (NSC764658), SN-38 (NSC673596), staurosporine (NSC755774), SY5609 (NSC837396), and tovorafenib (DAY101, NSC766906), were obtained from the National Cancer Institute (NCI) Developmental Therapeutics Program Chemical Repository. The FDA-approved anticancer drug set is available from the NCI Developmental Therapeutics Program. […] The stock solutions were prepared in dimethyl sulfoxide (DMSO, Sigma-Aldrich, St. Louis, MO, cat. D2650) at 800-fold the tested concentration and stored at -70 degrees C prior to their use. All drugs and investigational agents were tested over a range starting from a high concentration at or near the clinical Cmax and decreasing in half-log increments. If the clinical Cmax for an agent had not been determined, the highest concentration tested was 10 microM.
Cell Culture. All cells were maintained in an incubator at 37 degrees C and 5% CO2 with 95% humidity. The PDC lines were cultured according to standard operating procedures established by the NCI PDMR. All PDCs were thawed and cultured in Matrigel-coated flasks prepared with a working solution of 1X Ham's F-12 nutrient mix, without supplementation (Invitrogen, Waltham, MA, cat. 11765054), 100 U/mL penicillin-streptomycin (Invitrogen, cat. 15140122), and 2.5% Matrigel (Corning Inc., Corning, NY, cat. 354248) for the first three passages. The 362531-283-R-J2-PDC and 782815-120-R-J1-PDC lines were cultured in 6C/Colon 1B media, which includes advanced DMEM/F-12 (Thermo Fisher Scientific, cat. 12634028), 10 mM HEPES (Thermo Fisher Scientific, cat. 15630080), 1X GlutaMAX supplement (Thermo Fisher Scientific, cat. 35050061), 0.1 mg/mL primocin (InvivoGen, San Diego, CA, cat. ant-pm-2), 10% defined fetal bovine serum, heat inactivated (HyClone Laboratories Inc., Logan, UT, cat. SH30070.03HI), 50% L-WRN conditioned media (ATCC, cat. CRL-3276), 1.25 mM N-Acetyl-L-cysteine (Sigma-Aldrich, cat. A9165), 10 mM nicotinamide (Sigma-Aldrich, cat. N0636), 1X B-27 supplement (Thermo Fisher Scientific, cat. 17504044), 1X N-2 supplement (Thermo Fisher Scientific, cat. 17502048), 50 ng/mL human EGF (Thermo Fisher Scientific, cat. PHG0311), and 10 microM Y-27632 dihydrochloride (Tocris Bioscience, cat. 1254). The K12877-001-R-J1-PDC line was cultured in 6I media, which includes all 6C/Colon 1B media plus 10 ng/mL human FGF-10 (PeproTech, cat. 100-26), 1 ng/mL human FGF-2 (PeproTech, cat. 100-18B), 1 µM prostaglandin E2 (Tocris Bioscience, cat. 2296), […] hydrocortisone (Sigma-Aldrich, cat. H4001), and […] bovine insulin (Sigma-Aldrich, cat. I6634). The K86415-001-R-J1-PDC line was cultured in 6D media, which includes all 6C/Colon 1B media components minus the L-WRN conditioned media. The 485176-168-R4-J1-PDC was cultured in PANC media, which includes all 6C/Colon 1B media plus 100 ng/mL human FGF-10 (PeproTech, cat. 100-26), 500 nM SB-431542 (Selleckchem, cat. S1067), and 10 nM gastrin (Tocris Bioscience, cat. 3006). […]
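Note: spheroids exposed to agents for seven days before readout.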

Work on `CC1(O)CCCC1n1c(=O)c(C(F)F)cc2cnc(NC3CCN(S(C)(=O)=O)CC3)nc21` (configuration not stated) + C#Cc1c(F)ccc2cc(O)cc(-c3ncc4c(N5CC6CCC(C5)N6)nc(OCC56CCCN5CC(F)C6)nc4c3F)c12 yielded an IC50 (second compound 0.0316 µM) of 562 nM, an IC50 (second compound 0.1 µM) of 314 nM and an IC50 (second compound 0.316 µM) of 504 nM. The IC50 (second compound 1 µM) was 344 nM, the IC50 (second compound 3.16 µM) was 131 nM and the IC50 (second compound 10 µM) was < 31.6 nM. It also gave a viability, T/C (second compound 0.0316 µM, first compound 0.0316 µM) of 94.1%, a viability, T/C (second compound 0.0316 µM, first compound 0.1 µM) of 62.8% and a viability, T/C (second compound 0.0316 µM, first compound 0.316 µM) of 53.2%. For the same compound, the viability, T/C (second compound 0.0316 µM, first compound 1 µM) was 46.5%, the viability, T/C (second compound 0.0316 µM, first compound 3.16 µM) was 39.4% and the viability, T/C (second compound 0.0316 µM, first compound 10 µM) was 11.2%. For the same compound, the viability, T/C (second compound 0.1 µM, first compound 0.0316 µM) was 103%, the viability, T/C (second compound 0.1 µM, first compound 0.1 µM) was 66.4% and the viability, T/C (second compound 0.1 µM, first compound 0.316 µM) was 44.9%. For the same compound, the viability, T/C (second compound 0.1 µM, first compound 1 µM) was 40.8%, the viability, T/C (second compound 0.1 µM, first compound 3.16 µM) was 39.9% and the viability, T/C (second compound 0.1 µM, first compound 10 µM) was 10.9%. For the same compound, the viability, T/C (second compound 0.316 µM, first compound 0.0316 µM) was 84.6%, the viability, T/C (second compound 0.316 µM, first compound 0.1 µM) was 71.1% and the viability, T/C (second compound 0.316 µM, first compound 0.316 µM) was 46%. It also gave a viability, T/C (second compound 0.316 µM, first compound 1 µM) of 39%, a viability, T/C (second compound 0.316 µM, first compound 3.16 µM) of 47.1% and a viability, T/C (second compound 0.316 µM, first compound 10 µM) of 11.9%. For the same compound, the viability, T/C (second compound 1 µM, first compound 0.0316 µM) was 90%, the viability, T/C (second compound 1 µM, first compound 0.1 µM) was 63.4% and the viability, T/C (second compound 1 µM, first compound 0.316 µM) was 41%. The viability, T/C (second compound 1 µM, first compound 1 µM) was 44.2%, the viability, T/C (second compound 1 µM, first compound 3.16 µM) was 40.4% and the viability, T/C (second compound 1 µM, first compound 10 µM) was 13.3%. The viability, T/C (second compound 3.16 µM, first compound 0.0316 µM) was 65.8%, the viability, T/C (second compound 3.16 µM, first compound 0.1 µM) was 46.8% and the viability, T/C (second compound 3.16 µM, first compound 0.316 µM) was 38.8%. The viability, T/C (second compound 3.16 µM, first compound 1 µM) was 34.4%, the viability, T/C (second compound 3.16 µM, first compound 3.16 µM) was 35.8% and the viability, T/C (second compound 3.16 µM, first compound 10 µM) was 9.18%. It also gave a viability, T/C (second compound 10 µM, first compound 0.0316 µM) of 36.9%, a viability, T/C (second compound 10 µM, first compound 0.1 µM) of 32.6% and a viability, T/C (second compound 10 µM, first compound 0.316 µM) of 28.6%. The viability, T/C (second compound 10 µM, first compound 1 µM) was 30.9%, the viability, T/C (second compound 10 µM, first compound 3.16 µM) was 31.9% and the viability, T/C (second compound 10 µM, first compound 10 µM) was 6.8%.

Reference: PubChem BioAssay AID2060902 (Molecular Pharmacology Branch, DTP, NCI, 2025)
